44 compounds from ChEMBL document CHEMBL1641505, “17β-HSD2 inhibitors for the treatment of osteoporosis: Identification of a promising scaffold” (Bioorg Med Chem, 2011) can be followed below.

Bounds are passed on as bounds.

A word on the inhibition: it is how much of the control response was suppressed. For orientation: IC50 means the concentration at which inhibition is half-maximal. Lower therefore signals greater potency.

Assay [1] concerns the target T1, 17-beta-hydroxysteroid dehydrogenase type 2 (Homo sapiens) (UniProt P37059).
T1 sequence (whole entry): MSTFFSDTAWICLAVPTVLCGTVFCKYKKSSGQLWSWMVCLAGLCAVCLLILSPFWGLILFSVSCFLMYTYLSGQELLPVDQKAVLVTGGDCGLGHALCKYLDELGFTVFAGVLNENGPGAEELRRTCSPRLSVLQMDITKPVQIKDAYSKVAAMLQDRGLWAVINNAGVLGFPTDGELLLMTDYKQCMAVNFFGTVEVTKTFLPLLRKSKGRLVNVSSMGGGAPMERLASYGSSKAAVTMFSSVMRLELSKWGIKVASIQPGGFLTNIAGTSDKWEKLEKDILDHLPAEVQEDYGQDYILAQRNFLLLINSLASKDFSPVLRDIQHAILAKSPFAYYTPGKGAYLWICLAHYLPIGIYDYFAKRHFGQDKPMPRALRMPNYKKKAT
The assay can be described thus: Inhibition of [3H]E2 binding to human placental 17beta-HSD2 at 1 uM after 20 mins.

In assay [2] the target is T2, 17-beta-hydroxysteroid dehydrogenase type 1 (Homo sapiens) (UniProt P14061).
T2 sequence (whole entry): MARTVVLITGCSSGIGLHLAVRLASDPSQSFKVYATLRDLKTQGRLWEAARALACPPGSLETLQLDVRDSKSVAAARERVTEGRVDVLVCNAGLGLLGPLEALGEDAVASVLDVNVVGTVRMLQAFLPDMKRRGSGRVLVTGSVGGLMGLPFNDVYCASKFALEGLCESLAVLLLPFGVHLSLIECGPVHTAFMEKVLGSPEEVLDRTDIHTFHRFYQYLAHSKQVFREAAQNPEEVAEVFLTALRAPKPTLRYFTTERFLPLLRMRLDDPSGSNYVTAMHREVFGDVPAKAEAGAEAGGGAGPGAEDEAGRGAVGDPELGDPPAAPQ
The assay is described as follows: Inhibition of [3H]E1 binding to human placental 17beta-HSD1 at 1 uM after 20 mins.

The target of assay [3] is T3, 17-beta-hydroxysteroid dehydrogenase type 2 (Homo sapiens, UniProt P37059).
T3 sequence (P37059 whole entry): T1 sequence (whole entry)
The assay is described as follows: Inhibition of [3H]E2 binding to human placental 17beta-HSD2 after 20 mins.

In assay [4] the target is T4, 17-beta-hydroxysteroid dehydrogenase type 1 (Homo sapiens, UniProt P14061).
T4 sequence (P14061 whole entry): T2 sequence (whole entry)
The assay is described as follows: Inhibition of [3H]E1 binding to human placental 17beta-HSD1 after 20 mins.

For assay [5], the species on record is Homo sapiens. The assay can be described thus: Selectivity ratio of IC50 for human placental 17beta-HSD1 to IC50 for human placental 17beta-HSD2.
The target in assay [6] is T5, Estrogen receptor (Homo sapiens) (UniProt P03372).
T5 sequence (whole entry): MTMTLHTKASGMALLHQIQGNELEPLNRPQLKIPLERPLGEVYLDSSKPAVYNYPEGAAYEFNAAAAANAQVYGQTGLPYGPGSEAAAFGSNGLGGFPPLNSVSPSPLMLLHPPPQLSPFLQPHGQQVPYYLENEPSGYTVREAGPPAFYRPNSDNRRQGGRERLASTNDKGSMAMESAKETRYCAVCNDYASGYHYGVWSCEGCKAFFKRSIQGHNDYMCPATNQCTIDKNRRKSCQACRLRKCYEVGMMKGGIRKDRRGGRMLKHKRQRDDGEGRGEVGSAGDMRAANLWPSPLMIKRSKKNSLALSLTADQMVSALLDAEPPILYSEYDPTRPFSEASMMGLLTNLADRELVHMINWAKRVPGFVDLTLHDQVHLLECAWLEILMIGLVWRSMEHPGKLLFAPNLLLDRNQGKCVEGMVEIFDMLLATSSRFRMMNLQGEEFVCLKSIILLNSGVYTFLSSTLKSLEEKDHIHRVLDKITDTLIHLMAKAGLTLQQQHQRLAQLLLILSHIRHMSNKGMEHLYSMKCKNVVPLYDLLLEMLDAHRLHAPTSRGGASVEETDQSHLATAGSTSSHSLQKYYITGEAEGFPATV
The assay is described as follows: Displacement of [3H]E2 from human recombinant ERalpha by liquid scintillation counting relative to estradiol. On the technique in general: In a radioligand displacement assay an active substance lowers the binding of a labelled ligand.

Assay [7] has as its target Estrogen receptor beta (Homo sapiens) (UniProt Q92731). The assay can be described thus: Displacement of [3H]E2 from human recombinant ERbeta by liquid scintillation counting relative to estradiol.

Chain of Estrogen receptor beta (Homo sapiens) (Q92731 whole entry): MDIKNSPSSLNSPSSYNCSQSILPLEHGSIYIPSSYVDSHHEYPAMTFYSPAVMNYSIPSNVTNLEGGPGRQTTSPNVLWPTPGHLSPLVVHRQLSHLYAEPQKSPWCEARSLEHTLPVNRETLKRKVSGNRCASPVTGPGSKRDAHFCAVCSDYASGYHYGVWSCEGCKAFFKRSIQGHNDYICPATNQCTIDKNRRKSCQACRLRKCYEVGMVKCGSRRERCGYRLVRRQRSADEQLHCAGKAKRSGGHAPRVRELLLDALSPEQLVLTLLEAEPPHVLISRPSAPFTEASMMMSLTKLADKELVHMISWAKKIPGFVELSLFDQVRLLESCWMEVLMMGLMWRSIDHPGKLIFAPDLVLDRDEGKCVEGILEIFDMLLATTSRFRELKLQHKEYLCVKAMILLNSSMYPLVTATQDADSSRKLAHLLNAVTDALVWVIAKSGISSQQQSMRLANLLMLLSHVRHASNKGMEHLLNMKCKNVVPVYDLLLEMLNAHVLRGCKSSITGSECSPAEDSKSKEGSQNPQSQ

For the compound `CS(=O)(=O)Nc1ccc(-c2ccc3c(O)cccc3c2)cc1`, the inhibition in assay [1] came out at 75%; in assay [2], 52%. In addition, the results for the concentration for half-maximal inhibition (IC50) in assay [3] and in assay [4] were 0.6 µM and 0.614 µM, respectively. In addition, the Ratio IC50 in assay [5] worked out at 1.
In the case of `CN(C(=O)c1ccccc1)c1cccc(-c2ccc(O)cc2)c1`, the inhibition was 46% in assay [1] and under 10% in assay [2].
For the compound `Cc1cccc(S(=O)(=O)Nc2ccc(-c3ccc(O)cc3)cc2)c1`, the inhibition in assay [1] was 14%; in assay [2] it was under 10%.
The corresponding values for `CC(=O)Nc1cccc(-c2ccc(O)cc2)c1` are under 10% and under 10%.
The corresponding values for `COc1ccc(C(=O)N(C)c2cccc(-c3ccc(OC)cc3)c2)cc1` are 20% and under 10%.
The corresponding values for `Oc1ccc2cc(-c3ccccc3)ccc2c1` are 17% and 44%.
For the compound `CC(=O)Nc1cccc(-c2ccc3c(O)cccc3c2)c1`, the inhibition in assay [1] came to 64%; in assay [2] it was 12%. Also, the IC50 in assay [3] was 0.696 µM; in assay [4] it was 8.52 µM. For the same compound, the Ratio IC50 in assay [5] is 12.
In the case of `O=C(Nc1cccc(-c2ccc(CO)cc2)c1)c1ccccc1`, the inhibition in assay [1] and in assay [2] was under 10% in each case.
Regarding `COc1ccc(CC(=O)N(C)c2cccc(-c3ccc(CO)cc3)c2)cc1`, the inhibition in assay [1] and in assay [2] was under 10% throughout.
For the compound `Oc1cccc2cc(-c3ccncc3)ccc12`, the inhibition in assay [1] is 26%; in assay [2], under 10%.
Regarding `COc1ccc(C(=O)N(C)c2cccc(-c3ccc(CO)cc3)c2)cc1`, the figures for the inhibition in assay [1] and in assay [2] were 14% and under 10%, respectively.
The matching figures for `O=C(Nc1cccc(-c2ccc3c(O)cccc3c2)c1)c1ccccc1`: under 10% and under 10%.
The corresponding values for `Cc1cccc(S(=O)(=O)Nc2ccc(-c3ccc(CO)cc3)cc2)c1` are 12% and under 10%.
The matching figures for `CS(=O)(=O)Nc1cccc(-c2ccc3c(O)cccc3c2)c1`: 22% and 19%.
As to `N#Cc1ccc(-c2ccc3c(O)cccc3c2)cc1`, the values for the inhibition in assay [1] and in assay [2] were 12% and 16%, respectively.
The matching figures for `COc1ccc(-c2cccc(N(C)C(=O)c3cccc(OC)c3)c2)cc1`: 13% and 16%.
The matching figures for `COc1cccc(C(=O)N(C)c2cccc(-c3ccc(CO)cc3)c2)c1`: 15% and under 10%.
In the case of `CS(=O)(=O)Nc1ccc(-c2ccc(O)cc2)cc1`, the inhibition in assay [1] and in assay [2] was under 10% each time.
With `Oc1ccc2cc(-c3ccccc3O)ccc2c1`, the inhibition in assay [1] is under 10%.
As to `CS(=O)(=O)Nc1ccc(-c2ccc(CO)cc2)cc1`, the inhibition in assay [1] and in assay [2] was under 10% each time.
On to `COc1cccc(CC(=O)N(C)c2cccc(-c3ccc(CO)cc3)c2)c1`, for which the inhibition in assay [1] is 12%; in assay [2] it was under 10%.
As for `CC(=O)Nc1cccc(-c2ccc(CO)cc2)c1`, the inhibition in assay [1] and in assay [2] was under 10% each time.
Regarding `OCc1ccc(-c2ccc3c(O)cccc3c2)cc1`, the values for the inhibition in assay [1] and in assay [2] were 31% and 14%, respectively.
For the compound `Oc1cccc2cc(-c3cncnc3)ccc12`, the inhibition in assay [1] and in assay [2] was under 10% throughout.
For `CNC(=O)c1cccc(-c2ccc3c(O)cccc3c2)c1`, the inhibition in assay [1] is 43%; in assay [2] it was under 10%.
The corresponding values for `COc1ccc(CC(=O)N(C)c2cccc(-c3ccc(OC)cc3)c2)cc1` are 10% and 25%.
The corresponding values for `COc1ccncc1-c1ccc2c(O)cccc2c1` are under 10% and under 10%.
`Oc1cccc(-c2ccc3c(O)cccc3c2)c1` showed an inhibition in assay [1] of 32%.
As to `Oc1cccc2cc(-c3ccccc3)ccc12`, the inhibition in assay [1] was 20%; in assay [2], under 10%.
With `O=C(O)c1ccc(-c2ccc3c(O)cccc3c2)cc1`, the inhibition in assay [1] was 16%; in assay [2], under 10%.
The matching figures for `CN(C(=O)c1ccccc1)c1cccc(-c2ccc(CO)cc2)c1`: under 10% and under 10%.
`Oc1cccc(-c2ccc3cc(O)ccc3c2)c1` registered an inhibition in assay [2] of 100%. Moreover, the Ratio IC50 in assay [5] is 0.02.
As to `CNS(=O)(=O)c1ccc(-c2ccc3c(O)cccc3c2)cc1`, the inhibition came out at 57% in assay [1] and 12% in assay [2].
The matching figures for `O=C(Nc1cccc(-c2ccc(O)cc2)c1)c1ccccc1`: under 10% and under 10%.
In the case of `Oc1cccc2cc(-c3ccoc3)ccc12`, the inhibition in assay [1] was 13%; in assay [2], under 10%.
The corresponding values for `COc1ccc(-c2cccc(N(C)C(=O)Cc3cccc(OC)c3)c2)cc1` are under 10% and under 10%.
`CN(C(=O)Cc1cccc(O)c1)c1cccc(-c2ccc(O)cc2)c1` displayed an inhibition in assay [2] of under 10%.
As to `CC(=O)c1ccc(-c2ccc3c(O)cccc3c2)cc1`, the inhibition was under 10% in assay [1] and 16% in assay [2].
With `Oc1cccc2cc(-c3ccc(F)cc3)ccc12`, the inhibition in assay [1] and in assay [2] was under 10% throughout.
As for `CNC(=O)c1ccc(-c2ccc3c(O)cccc3c2)cc1`, the figures for the inhibition in assay [1] and in assay [2] were 13% and under 10%, respectively.
As to `Oc1ccc(-c2ccc3c(O)cccc3c2)cc1`, the values for the inhibition in assay [1] and in assay [2] were 74% and 20%, respectively. Moreover, the Ratio IC50 in assay [5] worked out at 8. In addition, the Activity in assay [6] and in assay [7] was 5% throughout.
`Oc1cccc(-c2ccc3ccccc3c2)c1` had an inhibition in assay [1] of 12%.
As to `O=[N+]([O-])c1ccc(-c2ccc3c(O)cccc3c2)cc1`, the values for the inhibition in assay [1] and in assay [2] were 13% and 15%, respectively.
The corresponding values for `COc1ccc(-c2ccc3c(O)cccc3c2)cc1` are 20% and 28%.
